In paper PMC12586182 (Frontiers in Oncology, 2025):

Tests used:
Experiment in all cases: Kinase panel profiling at 1 µmol/L (mobility shift assay, Carna)
Type in all cases: biochemical
Conditions in all cases: 1 µmol/L of BTK inhibitor
CaMK2β = target: T1, CaMK2β (Homo sapiens, UniProt Q13554)
T1 construct: purchased Carna Biosciences

CK1γ3 = target: T2, CK1γ3 (Homo sapiens, UniProt Q9Y6M4)
T2 construct: purchased Carna Biosciences

INSR = target: T3, INSR (Homo sapiens, UniProt P06213)
T3 construct: purchased Carna Biosciences

EPHA7 = target: T4, EPHA7 (Homo sapiens, UniProt Q15375)
T4 construct: purchased Carna Biosciences

TRKC = target: T5, TRKC (Homo sapiens, UniProt Q16288)
T5 construct: purchased Carna Biosciences

PAK1 = target: T6, PAK1 (Homo sapiens, UniProt Q13153)
T6 construct: purchased Carna Biosciences

MRCKα = target: T7, MRCKα (Homo sapiens, UniProt Q5VT25)
T7 construct: purchased Carna Biosciences

CaMK2α = target: T8, CaMK2α (Homo sapiens, UniProt Q9UQM7)
T8 construct: purchased Carna Biosciences

TBK1 = target: T9, TBK1 (Homo sapiens, UniProt Q9UHD2)
T9 construct: purchased Carna Biosciences
T9 sequence (Q9UHD2 1-729): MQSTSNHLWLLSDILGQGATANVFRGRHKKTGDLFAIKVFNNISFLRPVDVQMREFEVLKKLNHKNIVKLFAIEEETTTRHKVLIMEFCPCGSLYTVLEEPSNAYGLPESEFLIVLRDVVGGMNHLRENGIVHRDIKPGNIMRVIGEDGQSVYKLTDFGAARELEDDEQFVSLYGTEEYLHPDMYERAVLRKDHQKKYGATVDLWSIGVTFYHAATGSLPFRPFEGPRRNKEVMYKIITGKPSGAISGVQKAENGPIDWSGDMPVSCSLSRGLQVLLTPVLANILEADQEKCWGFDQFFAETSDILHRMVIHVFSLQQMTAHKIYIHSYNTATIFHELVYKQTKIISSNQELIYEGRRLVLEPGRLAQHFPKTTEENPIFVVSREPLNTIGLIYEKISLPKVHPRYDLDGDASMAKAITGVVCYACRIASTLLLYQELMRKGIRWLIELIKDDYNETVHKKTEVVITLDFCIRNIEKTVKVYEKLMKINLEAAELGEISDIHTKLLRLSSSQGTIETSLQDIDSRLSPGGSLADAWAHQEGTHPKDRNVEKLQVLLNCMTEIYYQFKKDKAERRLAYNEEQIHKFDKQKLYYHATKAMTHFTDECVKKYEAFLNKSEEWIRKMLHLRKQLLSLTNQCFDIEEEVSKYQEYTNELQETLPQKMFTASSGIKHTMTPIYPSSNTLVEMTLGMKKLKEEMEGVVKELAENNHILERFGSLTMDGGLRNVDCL

skMLCK = target: T10, skMLCK (Homo sapiens, UniProt Q9H1R3)
T10 construct: purchased Carna Biosciences

RSK4 = target: T11, RSK4 (Homo sapiens, UniProt Q9UK32)
T11 construct: purchased Carna Biosciences

PGK = target: T12, PGK (Homo sapiens, UniProt Q13976)
T12 construct: purchased Carna Biosciences
T12 sequence (Q13976 1-671): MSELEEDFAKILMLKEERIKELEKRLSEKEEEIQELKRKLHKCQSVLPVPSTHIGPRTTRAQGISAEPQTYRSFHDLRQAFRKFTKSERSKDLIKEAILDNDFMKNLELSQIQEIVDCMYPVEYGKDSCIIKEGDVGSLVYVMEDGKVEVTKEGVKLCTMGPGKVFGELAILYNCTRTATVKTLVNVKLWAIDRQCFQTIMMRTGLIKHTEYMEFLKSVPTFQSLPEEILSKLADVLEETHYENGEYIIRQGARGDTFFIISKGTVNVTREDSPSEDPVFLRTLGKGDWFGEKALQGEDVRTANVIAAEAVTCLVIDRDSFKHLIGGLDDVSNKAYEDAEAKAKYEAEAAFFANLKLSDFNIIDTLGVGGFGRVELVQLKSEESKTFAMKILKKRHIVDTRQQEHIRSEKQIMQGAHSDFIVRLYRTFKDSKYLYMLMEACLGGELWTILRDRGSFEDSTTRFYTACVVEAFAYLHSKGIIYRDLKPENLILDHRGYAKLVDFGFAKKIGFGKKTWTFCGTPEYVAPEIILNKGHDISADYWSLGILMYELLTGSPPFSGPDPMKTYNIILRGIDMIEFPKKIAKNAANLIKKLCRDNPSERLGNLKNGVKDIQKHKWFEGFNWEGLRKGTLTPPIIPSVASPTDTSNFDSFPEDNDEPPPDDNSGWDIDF

MST3 = target: T13, MST3 (Homo sapiens, UniProt Q9Y6E0)
T13 construct: purchased Carna Biosciences

GSK3α = target: T14, GSK3α (Homo sapiens, UniProt P49840)
T14 construct: purchased Carna Biosciences
T14 sequence (P49840 whole entry): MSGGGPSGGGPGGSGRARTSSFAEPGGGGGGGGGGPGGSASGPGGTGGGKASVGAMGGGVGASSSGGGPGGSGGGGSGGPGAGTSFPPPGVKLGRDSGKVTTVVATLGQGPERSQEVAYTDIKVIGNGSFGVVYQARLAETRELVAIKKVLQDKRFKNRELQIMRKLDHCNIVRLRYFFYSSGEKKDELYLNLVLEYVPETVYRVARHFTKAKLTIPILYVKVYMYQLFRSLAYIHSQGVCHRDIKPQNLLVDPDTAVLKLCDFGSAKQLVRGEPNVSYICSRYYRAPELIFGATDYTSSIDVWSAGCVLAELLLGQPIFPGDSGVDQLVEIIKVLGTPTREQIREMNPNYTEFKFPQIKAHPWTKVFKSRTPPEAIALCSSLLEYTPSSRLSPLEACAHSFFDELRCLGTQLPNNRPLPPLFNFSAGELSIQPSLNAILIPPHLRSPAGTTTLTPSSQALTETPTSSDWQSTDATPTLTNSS

T11 sequence (Q9UK32 whole entry): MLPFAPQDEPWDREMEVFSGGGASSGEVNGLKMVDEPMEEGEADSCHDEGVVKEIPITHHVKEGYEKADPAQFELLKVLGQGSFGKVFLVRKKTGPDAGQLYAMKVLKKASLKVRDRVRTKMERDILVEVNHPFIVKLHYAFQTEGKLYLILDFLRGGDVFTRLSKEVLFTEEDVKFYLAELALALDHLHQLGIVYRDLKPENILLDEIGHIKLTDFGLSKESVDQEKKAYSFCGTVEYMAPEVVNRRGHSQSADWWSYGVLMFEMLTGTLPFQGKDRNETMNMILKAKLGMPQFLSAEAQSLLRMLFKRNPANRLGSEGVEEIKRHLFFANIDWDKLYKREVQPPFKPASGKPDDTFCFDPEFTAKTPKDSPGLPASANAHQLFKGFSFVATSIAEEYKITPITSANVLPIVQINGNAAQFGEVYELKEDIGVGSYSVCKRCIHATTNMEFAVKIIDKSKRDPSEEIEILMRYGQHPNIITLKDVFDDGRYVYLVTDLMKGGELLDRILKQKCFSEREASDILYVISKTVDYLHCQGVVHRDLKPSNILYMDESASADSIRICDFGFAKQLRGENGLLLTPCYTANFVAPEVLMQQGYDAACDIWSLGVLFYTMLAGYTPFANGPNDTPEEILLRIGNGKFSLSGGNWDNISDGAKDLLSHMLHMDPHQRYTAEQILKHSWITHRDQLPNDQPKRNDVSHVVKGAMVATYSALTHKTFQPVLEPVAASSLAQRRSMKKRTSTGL
T13 sequence (Q9Y6E0 whole entry): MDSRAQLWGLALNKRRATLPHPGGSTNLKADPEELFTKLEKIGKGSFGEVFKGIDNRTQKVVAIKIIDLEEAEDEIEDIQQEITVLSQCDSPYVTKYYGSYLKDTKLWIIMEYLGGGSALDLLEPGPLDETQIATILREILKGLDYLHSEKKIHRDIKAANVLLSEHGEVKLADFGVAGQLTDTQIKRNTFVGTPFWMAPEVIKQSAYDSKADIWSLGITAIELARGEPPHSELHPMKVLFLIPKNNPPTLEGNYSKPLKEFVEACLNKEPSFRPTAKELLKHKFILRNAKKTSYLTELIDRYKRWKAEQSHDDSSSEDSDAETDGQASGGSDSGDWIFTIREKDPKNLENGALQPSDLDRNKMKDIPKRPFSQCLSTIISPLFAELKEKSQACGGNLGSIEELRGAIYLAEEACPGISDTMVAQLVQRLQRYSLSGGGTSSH
T10 sequence (Q9H1R3 whole entry): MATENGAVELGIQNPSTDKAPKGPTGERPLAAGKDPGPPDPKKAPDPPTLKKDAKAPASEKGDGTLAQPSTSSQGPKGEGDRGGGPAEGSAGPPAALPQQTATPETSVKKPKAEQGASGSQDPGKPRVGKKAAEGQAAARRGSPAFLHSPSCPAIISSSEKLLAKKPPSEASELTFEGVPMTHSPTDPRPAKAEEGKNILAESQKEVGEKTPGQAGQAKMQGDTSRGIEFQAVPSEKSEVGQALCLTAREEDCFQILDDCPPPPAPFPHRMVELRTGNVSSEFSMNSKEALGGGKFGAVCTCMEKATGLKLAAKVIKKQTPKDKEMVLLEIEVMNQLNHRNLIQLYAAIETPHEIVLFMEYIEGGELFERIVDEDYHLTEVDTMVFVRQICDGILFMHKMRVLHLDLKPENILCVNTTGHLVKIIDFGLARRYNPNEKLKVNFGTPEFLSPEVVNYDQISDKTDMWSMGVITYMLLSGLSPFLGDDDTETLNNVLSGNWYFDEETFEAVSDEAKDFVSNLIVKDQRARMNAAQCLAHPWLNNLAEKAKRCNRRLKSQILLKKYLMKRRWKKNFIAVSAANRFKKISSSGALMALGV
T3 sequence (P06213 28-1382): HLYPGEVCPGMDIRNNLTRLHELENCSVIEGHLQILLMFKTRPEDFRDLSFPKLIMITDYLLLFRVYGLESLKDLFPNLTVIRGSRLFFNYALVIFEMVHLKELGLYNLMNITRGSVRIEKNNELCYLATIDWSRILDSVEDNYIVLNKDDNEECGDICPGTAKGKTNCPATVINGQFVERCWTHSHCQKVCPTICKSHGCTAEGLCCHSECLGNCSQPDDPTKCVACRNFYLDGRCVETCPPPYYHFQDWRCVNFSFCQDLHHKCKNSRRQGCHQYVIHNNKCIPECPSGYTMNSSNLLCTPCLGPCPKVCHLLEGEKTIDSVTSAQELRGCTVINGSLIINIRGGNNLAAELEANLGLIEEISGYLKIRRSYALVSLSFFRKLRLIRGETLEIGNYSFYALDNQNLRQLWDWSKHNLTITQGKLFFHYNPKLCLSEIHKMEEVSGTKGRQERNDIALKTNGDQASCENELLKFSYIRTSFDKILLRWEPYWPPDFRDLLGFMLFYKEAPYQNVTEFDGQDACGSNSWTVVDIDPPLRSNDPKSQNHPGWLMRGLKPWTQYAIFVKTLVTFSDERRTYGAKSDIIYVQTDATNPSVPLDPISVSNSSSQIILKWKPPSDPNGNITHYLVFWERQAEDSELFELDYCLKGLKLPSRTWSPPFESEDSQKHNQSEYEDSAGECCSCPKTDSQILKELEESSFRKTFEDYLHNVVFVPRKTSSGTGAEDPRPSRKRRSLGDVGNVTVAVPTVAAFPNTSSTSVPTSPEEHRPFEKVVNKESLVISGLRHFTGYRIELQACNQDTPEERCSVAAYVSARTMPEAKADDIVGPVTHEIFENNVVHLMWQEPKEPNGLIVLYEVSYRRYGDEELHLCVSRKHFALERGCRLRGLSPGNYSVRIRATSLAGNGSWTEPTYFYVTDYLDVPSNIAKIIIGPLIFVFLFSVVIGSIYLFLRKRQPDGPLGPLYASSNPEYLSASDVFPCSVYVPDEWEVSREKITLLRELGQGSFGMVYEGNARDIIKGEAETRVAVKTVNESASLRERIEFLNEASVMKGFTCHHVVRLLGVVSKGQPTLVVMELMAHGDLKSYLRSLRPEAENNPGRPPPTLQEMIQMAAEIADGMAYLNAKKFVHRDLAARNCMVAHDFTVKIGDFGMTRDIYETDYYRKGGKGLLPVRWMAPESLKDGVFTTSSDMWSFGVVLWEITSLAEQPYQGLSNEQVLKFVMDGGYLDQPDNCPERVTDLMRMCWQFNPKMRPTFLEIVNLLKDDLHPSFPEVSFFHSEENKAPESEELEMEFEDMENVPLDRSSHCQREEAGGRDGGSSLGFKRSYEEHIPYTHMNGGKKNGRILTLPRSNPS
T2 sequence (Q9Y6M4 whole entry): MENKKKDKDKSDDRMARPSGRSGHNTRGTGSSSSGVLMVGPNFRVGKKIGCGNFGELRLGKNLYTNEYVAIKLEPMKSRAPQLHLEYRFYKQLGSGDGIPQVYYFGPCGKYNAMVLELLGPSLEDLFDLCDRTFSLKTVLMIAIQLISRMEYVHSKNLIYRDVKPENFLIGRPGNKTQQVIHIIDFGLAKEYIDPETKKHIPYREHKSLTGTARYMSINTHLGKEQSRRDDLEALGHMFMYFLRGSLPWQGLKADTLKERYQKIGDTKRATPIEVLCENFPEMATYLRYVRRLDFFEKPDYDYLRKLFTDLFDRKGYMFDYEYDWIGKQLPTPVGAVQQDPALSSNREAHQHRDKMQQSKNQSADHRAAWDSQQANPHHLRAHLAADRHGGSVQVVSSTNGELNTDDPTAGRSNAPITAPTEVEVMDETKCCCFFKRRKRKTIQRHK
T4 sequence (Q15375 28-998): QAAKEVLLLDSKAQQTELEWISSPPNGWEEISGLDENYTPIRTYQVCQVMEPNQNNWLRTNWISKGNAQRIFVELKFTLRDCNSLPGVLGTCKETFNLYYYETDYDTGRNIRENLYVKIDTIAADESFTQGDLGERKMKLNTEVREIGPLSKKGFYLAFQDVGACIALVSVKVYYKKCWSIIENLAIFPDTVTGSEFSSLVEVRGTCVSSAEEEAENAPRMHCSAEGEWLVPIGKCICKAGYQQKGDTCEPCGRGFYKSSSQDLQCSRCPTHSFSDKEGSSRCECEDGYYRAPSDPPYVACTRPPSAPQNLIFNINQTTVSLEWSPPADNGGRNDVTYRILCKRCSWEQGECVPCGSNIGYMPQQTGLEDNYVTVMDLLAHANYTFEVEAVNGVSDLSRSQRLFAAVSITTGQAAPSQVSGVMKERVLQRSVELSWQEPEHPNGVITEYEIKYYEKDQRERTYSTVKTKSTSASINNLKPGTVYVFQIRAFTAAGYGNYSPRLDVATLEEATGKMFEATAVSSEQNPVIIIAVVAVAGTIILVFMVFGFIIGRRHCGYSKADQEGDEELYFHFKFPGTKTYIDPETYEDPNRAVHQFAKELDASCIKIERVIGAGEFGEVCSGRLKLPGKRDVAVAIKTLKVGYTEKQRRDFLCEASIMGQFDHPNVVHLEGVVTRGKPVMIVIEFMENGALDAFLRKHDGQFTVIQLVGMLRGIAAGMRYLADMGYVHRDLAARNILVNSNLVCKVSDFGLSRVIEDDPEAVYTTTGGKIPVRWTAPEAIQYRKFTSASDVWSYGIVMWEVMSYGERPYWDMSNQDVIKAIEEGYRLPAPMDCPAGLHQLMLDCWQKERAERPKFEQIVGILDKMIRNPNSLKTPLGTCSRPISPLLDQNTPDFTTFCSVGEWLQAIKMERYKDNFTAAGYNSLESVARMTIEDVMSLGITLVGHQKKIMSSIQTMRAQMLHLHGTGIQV

Row | Structure (SMILES) | Percentage inhibition of kinase enzyme activity (CaMK2β) [%] | Percentage inhibition of kinase enzyme activity (CK1γ3) [%] | Percentage inhibition of kinase enzyme activity (INSR) [%] | Percentage inhibition of kinase enzyme activity (EPHA7) [%] | Percentage inhibition of kinase enzyme activity (TRKC) [%] | Percentage inhibition of kinase enzyme activity (PAK1) [%] | Percentage inhibition of kinase enzyme activity (MRCKα) [%] | Percentage inhibition of kinase enzyme activity (CaMK2α) [%] | Percentage inhibition of kinase enzyme activity (TBK1) [%] | Percentage inhibition of kinase enzyme activity (skMLCK) [%] | Percentage inhibition of kinase enzyme activity (RSK4) [%] | Percentage inhibition of kinase enzyme activity (PGK) [%] | Percentage inhibition of kinase enzyme activity (MST3) [%] | Percentage inhibition of kinase enzyme activity (GSK3α) [%]
1 | CC#CC(=O)N1CCC[C@H]1c1nc(-c2ccc(C(=O)Nc3ccccn3)cc2)c2c(N)nccn12 [acalabrutinib] | -1.09 | -14.72 | -4.67 | -3.54 | 11.12 | -0.37 | -7.47 | -3.43 | 2.14 | -17.48 | 4.21 | -3.70 | -2.52 | 2.47
2 | C=CC(=O)N1CCC[C@@H](n2nc(-c3ccc(Oc4ccccc4)cc3)c3c(N)ncnc32)C1 [ibrutinib] | -2.56 | 3.83 | 9.51 | 6.99 | 23.90 | 6.57 | -0.62 | -1.35 | 0.83 | -16.74 | 5.52 | 1.89 | 7.79 | 2.24
3 | O=C(c1ccc(Oc2ccccc2)cc1Cl)c1c[nH]c2ncnc(N[C@@H]3CC[C@@H](CO)OC3)c12 [nemtabrutinib] | 2.18 | 3.75 | 95.91 | 94.05 | 99.56 | 79.33 | 9.50 | 2.91 | 1.71 | 2.60 | -2.32 | -2.11 | 60.10 | -3.85
4 | COc1ccc(F)cc1C(=O)NCc1ccc(-c2nn([C@@H](C)C(F)(F)F)c(N)c2C(N)=O)cc1 [pirtobrutinib] | -2.89 | -0.93 | 6.62 | -9.86 | 5.23 | 5.73 | 0.63 | -0.99 | 2.58 | -3.69 | -0.12 | 0.94 | 0.67 | -5.30
5 | C=CC(=O)N1CCC([C@@H]2CCNc3c(C(N)=O)c(-c4ccc(Oc5ccccc5)cc4)nn32)CC1 [zanubrutinib] | – | – | 2.69 | -7.84 | – | – | – | – | – | – | – | – | – | –
